The target of experiment [1] is Adrenergic receptor alpha-2 (Homo sapiens) (UniProt P08913+P18825+P18089). The experiment is described as follows: Inhibition of Alpha 2 receptor (unknown origin) at 10 uM relative to control. Type of experiment: protein assay.
Experiment [2] concerns the target Beta-1 adrenergic receptor (Homo sapiens) (UniProt P08588). The experiment is described as follows: Binding affinity to Beta1 (unknown origin) assessed as specific binding at 10 uM relative to control.
The target of experiment [3] is Transcription initiation factor TFIID subunit 1-like (Homo sapiens) (UniProt Q8IZX4). Particulars: dose 10.0 µM.
The target in experiment [4] is T1, Peregrin (Homo sapiens) (UniProt P55201).
T1 sequence (whole entry): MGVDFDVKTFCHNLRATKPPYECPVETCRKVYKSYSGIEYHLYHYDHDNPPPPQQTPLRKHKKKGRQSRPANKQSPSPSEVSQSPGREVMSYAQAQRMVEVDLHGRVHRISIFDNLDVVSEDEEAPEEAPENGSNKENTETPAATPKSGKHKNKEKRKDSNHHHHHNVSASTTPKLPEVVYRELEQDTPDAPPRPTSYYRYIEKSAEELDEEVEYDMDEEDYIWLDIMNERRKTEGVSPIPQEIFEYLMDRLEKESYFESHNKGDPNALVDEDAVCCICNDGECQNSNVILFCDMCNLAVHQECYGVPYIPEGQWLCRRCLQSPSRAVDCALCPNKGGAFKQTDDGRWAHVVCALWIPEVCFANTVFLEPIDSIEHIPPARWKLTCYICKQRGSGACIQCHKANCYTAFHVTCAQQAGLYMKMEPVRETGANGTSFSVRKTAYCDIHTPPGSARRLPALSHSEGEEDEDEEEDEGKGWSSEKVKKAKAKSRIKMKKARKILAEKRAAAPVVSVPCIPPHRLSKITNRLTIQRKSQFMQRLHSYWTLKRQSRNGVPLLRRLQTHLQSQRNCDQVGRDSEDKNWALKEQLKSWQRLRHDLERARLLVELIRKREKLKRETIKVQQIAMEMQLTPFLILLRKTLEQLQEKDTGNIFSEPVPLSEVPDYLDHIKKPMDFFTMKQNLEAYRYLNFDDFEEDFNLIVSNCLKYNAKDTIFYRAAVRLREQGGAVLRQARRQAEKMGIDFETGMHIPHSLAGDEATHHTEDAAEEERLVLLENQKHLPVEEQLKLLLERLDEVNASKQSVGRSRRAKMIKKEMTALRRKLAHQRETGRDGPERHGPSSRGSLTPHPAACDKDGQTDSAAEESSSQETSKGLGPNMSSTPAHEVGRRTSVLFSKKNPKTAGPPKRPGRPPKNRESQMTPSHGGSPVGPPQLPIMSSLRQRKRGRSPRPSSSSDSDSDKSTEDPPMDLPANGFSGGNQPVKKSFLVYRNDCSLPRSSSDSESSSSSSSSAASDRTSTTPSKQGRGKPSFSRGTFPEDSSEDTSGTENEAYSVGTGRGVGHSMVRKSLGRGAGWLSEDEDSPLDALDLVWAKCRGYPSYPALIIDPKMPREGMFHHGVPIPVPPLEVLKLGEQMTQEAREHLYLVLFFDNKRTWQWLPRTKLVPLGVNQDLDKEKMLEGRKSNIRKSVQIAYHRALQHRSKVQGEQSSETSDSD
The experiment is described as follows: Binding affinity to […] (unknown origin) assessed as change in gibbs free energy at 17 uM by Isothermal titration calorimetry. In general terms: ITC needs no label: the signal is the heat of the interaction.

Experiment [5] addresses Bromodomain-containing protein 2 (Homo sapiens) (UniProt P25440). The conditions noted are these: dose 10.0 µM.
Experiment [6] concerns the target Bromodomain-containing protein 4 (Homo sapiens) (UniProt O60885). Description: Binding affinity to BRD4 BD1 (unknown origin) assessed as change in entropy TdeltaS at 14 uM by Isothermal titration calorimetry.
In experiment [7] the target is Transcription intermediary factor 1-alpha (Homo sapiens, UniProt O15164).
Experiment [8] has as its target Beta-2 adrenergic receptor (Homo sapiens) (UniProt P07550). Description: Inhibition of Beta2 (unknown origin) at 10 uM relative to control.
Experiment [9] deals with Bromodomain-containing protein 4 (Homo sapiens) (UniProt O60885). Description: Binding affinity to BRD4 BD1 (unknown origin) assessed as change in entropy at 14 uM by Isothermal titration calorimetry.
Experiment [10] concerns the target T2, Bromodomain and PHD finger-containing protein 3 (Homo sapiens) (UniProt Q9ULD4).
T2 sequence (whole entry): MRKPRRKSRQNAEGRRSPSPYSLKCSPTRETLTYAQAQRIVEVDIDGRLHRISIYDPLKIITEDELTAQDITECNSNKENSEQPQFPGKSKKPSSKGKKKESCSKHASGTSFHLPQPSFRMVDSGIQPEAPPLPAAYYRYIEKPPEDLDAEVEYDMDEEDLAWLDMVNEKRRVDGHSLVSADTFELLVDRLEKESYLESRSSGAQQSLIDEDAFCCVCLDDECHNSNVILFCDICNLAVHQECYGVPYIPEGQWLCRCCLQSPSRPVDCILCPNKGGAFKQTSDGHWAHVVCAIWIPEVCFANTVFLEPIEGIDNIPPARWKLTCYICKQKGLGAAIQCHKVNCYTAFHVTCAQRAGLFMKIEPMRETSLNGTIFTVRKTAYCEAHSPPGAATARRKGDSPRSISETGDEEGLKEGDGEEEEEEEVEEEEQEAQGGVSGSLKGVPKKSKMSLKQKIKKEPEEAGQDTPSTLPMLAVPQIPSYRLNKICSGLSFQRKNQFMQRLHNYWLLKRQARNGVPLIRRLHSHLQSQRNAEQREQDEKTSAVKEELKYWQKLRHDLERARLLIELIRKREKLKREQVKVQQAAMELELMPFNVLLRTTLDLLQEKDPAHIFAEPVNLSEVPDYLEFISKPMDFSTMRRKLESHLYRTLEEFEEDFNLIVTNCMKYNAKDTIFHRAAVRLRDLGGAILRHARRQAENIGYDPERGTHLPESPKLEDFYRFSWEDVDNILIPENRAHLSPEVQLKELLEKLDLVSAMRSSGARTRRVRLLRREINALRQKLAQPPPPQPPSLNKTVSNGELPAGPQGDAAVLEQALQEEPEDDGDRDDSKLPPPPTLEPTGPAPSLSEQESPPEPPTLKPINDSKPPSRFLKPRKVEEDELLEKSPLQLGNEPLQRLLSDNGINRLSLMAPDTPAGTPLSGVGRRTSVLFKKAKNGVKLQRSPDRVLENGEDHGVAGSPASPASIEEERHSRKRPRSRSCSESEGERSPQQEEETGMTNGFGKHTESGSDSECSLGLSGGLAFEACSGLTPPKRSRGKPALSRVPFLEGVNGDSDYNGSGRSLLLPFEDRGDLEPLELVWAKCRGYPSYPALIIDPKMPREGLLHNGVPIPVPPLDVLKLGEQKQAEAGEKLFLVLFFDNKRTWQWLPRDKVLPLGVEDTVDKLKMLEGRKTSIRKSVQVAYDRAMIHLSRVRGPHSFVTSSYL
The experiment is described as follows: Binding affinity to BRPF3 (unknown origin) assessed as change in entropy TdeltaS at 12 uM by Isothermal titration calorimetry.

Data on 1 compound can be found in ChEMBL document CHEMBL5715956, “Selective Targeting of Bromodomains of the Bromodomain-PHD Fingers Family Impairs Osteoclast Differentiation” (ACS Chem Biol, 2017).

pIC50: −log10 of the molar value.

Chain of Beta-1 adrenergic receptor (Homo sapiens) (P08588 whole entry, looked up): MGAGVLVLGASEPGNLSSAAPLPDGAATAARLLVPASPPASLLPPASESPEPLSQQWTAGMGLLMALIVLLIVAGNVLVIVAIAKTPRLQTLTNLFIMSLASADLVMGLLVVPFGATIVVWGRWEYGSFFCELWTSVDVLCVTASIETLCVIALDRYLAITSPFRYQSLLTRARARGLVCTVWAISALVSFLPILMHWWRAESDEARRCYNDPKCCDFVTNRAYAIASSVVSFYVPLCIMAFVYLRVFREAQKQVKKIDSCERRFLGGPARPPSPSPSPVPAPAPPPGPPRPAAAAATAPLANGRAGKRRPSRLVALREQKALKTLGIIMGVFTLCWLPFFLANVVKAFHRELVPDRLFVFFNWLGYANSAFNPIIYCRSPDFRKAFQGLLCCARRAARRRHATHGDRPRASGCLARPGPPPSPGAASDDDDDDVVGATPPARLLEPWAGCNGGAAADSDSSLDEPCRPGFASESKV
Chain of Beta-2 adrenergic receptor (Homo sapiens) (P07550 whole entry, looked up): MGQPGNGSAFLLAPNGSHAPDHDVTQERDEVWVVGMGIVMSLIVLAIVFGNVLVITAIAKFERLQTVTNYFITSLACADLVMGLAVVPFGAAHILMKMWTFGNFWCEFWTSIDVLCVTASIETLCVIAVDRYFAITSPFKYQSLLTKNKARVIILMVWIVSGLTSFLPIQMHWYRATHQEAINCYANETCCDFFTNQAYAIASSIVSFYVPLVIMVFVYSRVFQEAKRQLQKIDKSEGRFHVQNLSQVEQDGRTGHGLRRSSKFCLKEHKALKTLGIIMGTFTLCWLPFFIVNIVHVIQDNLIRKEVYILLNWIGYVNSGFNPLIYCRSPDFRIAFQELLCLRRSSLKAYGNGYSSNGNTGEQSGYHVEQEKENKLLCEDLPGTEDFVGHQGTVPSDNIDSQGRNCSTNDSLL
Chain of Transcription intermediary factor 1-alpha (O15164 whole entry): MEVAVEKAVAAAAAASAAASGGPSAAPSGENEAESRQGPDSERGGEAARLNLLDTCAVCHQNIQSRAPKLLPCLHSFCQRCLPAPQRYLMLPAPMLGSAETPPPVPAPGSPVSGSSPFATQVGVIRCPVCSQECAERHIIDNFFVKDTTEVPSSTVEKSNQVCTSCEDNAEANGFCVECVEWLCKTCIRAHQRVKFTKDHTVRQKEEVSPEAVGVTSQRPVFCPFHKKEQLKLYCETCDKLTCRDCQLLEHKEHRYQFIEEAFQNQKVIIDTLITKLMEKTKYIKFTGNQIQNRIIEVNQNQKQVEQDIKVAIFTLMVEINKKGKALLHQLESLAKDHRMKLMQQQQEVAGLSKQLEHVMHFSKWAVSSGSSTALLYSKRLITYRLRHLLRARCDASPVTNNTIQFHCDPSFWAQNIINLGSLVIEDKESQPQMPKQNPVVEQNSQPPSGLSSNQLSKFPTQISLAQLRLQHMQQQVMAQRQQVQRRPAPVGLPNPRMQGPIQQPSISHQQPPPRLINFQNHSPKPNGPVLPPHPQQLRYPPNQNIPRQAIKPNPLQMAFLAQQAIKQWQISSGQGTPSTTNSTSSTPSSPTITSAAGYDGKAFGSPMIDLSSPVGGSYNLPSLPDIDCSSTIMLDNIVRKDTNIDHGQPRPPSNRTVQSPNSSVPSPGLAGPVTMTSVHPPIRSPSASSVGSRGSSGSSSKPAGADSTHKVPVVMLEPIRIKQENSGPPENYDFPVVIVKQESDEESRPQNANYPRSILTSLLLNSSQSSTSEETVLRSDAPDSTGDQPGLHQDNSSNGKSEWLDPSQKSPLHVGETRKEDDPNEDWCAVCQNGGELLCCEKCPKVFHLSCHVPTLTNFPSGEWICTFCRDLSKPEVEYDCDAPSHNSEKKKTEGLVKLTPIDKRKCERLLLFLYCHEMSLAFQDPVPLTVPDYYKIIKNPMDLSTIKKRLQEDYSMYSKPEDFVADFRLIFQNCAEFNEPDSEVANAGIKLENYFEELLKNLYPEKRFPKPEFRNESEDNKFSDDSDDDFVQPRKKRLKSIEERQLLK
Chain of Transcription initiation factor TFIID subunit 1-like (Homo sapiens) (Q8IZX4 whole entry): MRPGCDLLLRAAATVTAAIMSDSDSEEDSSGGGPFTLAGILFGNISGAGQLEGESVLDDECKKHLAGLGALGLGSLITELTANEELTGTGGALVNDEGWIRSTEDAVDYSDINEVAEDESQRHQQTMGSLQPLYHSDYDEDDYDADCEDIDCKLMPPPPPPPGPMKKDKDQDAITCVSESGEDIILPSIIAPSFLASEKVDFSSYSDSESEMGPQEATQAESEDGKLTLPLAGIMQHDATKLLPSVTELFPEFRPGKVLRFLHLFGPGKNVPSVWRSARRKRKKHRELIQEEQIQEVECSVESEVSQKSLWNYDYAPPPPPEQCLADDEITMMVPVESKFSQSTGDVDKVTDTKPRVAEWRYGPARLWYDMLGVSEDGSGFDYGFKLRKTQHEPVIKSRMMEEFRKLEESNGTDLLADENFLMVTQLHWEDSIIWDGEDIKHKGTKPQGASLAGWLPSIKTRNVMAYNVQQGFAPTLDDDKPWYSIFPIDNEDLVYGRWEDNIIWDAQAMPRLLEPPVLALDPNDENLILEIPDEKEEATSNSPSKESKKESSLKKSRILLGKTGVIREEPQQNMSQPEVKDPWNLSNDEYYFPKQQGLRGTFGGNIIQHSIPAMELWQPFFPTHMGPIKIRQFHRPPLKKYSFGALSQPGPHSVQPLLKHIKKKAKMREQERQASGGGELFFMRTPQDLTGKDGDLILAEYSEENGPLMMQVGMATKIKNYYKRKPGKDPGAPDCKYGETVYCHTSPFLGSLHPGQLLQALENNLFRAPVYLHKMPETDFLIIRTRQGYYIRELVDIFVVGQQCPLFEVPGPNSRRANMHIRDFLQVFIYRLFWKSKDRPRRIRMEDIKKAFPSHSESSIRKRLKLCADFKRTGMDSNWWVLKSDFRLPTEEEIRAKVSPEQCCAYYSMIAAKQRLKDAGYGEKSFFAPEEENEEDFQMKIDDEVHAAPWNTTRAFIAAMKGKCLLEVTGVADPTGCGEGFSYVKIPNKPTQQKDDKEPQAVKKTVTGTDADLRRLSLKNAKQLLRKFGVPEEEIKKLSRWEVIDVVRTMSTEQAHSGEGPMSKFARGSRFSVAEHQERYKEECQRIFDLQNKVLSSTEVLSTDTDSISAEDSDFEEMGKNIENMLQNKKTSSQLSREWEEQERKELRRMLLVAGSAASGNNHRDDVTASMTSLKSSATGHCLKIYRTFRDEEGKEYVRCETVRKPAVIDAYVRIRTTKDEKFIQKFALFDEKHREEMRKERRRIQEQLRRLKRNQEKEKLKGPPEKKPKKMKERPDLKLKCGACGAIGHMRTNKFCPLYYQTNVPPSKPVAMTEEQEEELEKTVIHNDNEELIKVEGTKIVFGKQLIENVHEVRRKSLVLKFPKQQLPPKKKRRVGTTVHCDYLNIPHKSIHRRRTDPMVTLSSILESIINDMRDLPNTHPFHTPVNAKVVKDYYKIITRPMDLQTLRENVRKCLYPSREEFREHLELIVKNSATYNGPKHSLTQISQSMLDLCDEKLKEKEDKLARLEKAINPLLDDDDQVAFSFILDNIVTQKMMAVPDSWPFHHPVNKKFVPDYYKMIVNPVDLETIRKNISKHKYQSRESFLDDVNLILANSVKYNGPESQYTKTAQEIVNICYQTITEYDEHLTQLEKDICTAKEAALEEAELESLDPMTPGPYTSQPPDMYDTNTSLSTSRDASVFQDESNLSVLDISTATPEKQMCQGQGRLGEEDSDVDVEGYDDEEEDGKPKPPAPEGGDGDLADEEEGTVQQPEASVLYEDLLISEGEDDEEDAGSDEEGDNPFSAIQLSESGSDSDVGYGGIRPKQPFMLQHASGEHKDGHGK
Chain of Bromodomain-containing protein 2 (Homo sapiens) (P25440 whole entry, looked up): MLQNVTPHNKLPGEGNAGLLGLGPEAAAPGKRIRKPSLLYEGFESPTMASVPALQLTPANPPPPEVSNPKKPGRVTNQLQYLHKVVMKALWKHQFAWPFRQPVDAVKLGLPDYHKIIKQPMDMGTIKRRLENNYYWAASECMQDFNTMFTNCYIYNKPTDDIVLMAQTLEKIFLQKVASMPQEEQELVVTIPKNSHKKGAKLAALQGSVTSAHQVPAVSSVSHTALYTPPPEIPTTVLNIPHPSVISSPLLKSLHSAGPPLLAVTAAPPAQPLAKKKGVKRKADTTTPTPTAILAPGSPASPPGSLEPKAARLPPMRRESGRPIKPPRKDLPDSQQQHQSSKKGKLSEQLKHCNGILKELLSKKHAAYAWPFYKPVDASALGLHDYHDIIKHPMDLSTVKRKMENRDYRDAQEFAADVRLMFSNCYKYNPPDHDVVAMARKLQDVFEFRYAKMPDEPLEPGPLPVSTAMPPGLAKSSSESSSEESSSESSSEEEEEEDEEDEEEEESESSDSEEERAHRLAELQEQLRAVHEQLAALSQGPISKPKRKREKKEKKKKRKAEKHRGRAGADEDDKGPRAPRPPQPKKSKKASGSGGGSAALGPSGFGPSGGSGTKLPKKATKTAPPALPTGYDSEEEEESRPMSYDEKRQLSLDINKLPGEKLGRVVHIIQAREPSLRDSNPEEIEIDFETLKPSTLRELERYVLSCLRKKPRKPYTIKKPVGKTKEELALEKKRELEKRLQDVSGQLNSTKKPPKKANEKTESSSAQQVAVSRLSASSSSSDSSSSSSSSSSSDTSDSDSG

By inhibition is commonly meant the change of the read-out against control, counted positive when it falls. For orientation: ΔTm means the change in melting temperature against a reference sample. The pIC50 is the IC50 on a negative log10 scale, so that one unit is a factor of ten. A higher pIC50 goes with a low IC50. Regarding `COc1cc2c(cc1NS(=O)(=O)c1ccc(Br)cc1C)n(C)c(=O)n2C`, the figures for the inhibition in experiment [1] and in experiment [8] were -3% and 8%, respectively. Further, the Activity in experiment [2] came out at 92.6%. The values for the ΔTm in [3] and in experiment [5] were 1.4 °C and 0.8 °C, respectively. In addition, the deltaG in [4] was -9.24 kcal/mol. Also, the TdeltaS in experiment [6] was 0.198 kcal/mol; in experiment [10], 0.427 kcal/mol. The compound also showed a pIC50 in experiment [7] below 5.00. Further, in experiment [9], the deltaS amounted to 0.001 kcal/mol/K.
